Twelve compounds from ChEMBL document CHEMBL1201862, “PubChem BioAssay data set” (2004) can be followed below.

Common to all, as to test: inhibition of tumour cell growth, NCI panel, 48 h
Test [1] has as its system 786-0.
Test [2] relates to CAKI-1.
Test [3] concerns DMS-273.
For test [4], the system named is EKVX.
The subject of test [5] is HCC 2998.
Test [6] relates to HL-60.
The test system of test [7] is LXFL 529.
Test [8] relates to MOLT-4.
The subject of test [9] is Malme-3M.
Test [10] concerns NCI-H460.
Test [11] concerns NCI-H522.
The test system of test [12] is OVCAR-4.
Test [13] deals with OVCAR-8.
The subject of test [14] is SN12C.
Test [15] has as its system SNB-19.
Test [16] concerns UACC-62.
In test [17] the test system is HCT-116.

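1) Cells in 96-well plates. 2) Compound, 48 h, 5 concentrations. 3) Linear interpolation between surrounding doses. 4) Unreached endpoint = highest concentration. At the GI50, growth is halved.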 Active and inactive are the calls of the source. Rule as the data show it: active = GI50 up to about 1.1 µM and inactive = higher. Bounds are passed on as bounds.

On to `CC(C)NCC(O)COC(=O)c1cccs1` (stereo unspecified), for which the GI50 in test [1], in [2], in test [3], in test [4], in test [5] and in test [6] was > 100 µM (inactive) in each case. Further, the GI50 in [7], in test [8], in test [9], in test [10], in test [11] and in test [12] was > 100 µM (inactive) in each case. Further, the GI50 in test [13], in test [14], in test [15] and in test [16] was > 100 µM (inactive) throughout.

In the case of `CN(C)CCNC(=O)Cc1ccccc1Nc1c(Cl)cccc1Cl`, the GI50 was 12.2 µM (inactive) in test [1]; 16.7 µM (inactive) in test [3]; 17.4 µM (inactive) in test [4]; 11.5 µM (inactive) in test [5]; 17.2 µM (inactive) in [17]; 14.7 µM (inactive) in [6]. Further, the GI50 is 17.7 µM (inactive) in test [7]; 16 µM (inactive) in test [8]; 10 µM (inactive) in [10]; 20.1 µM (inactive) in [12]; 18.9 µM (inactive) in test [13]; 15.1 µM (inactive) in test [14]. For the same compound, the results for the GI50 in [15] and in test [16] were 17.2 µM (inactive) and 18.3 µM (inactive), respectively.

As for `O=C(CCn1[nH]c(=O)c(Cl)c(Cl)c1=O)NNC(=O)C[n+]1ccccc1`, the GI50 in [1], in test [2], in test [3], in [4], in [5] and in [6] was > 100 µM (inactive) in each case. In addition, the GI50 in test [7], in test [8], in test [9], in test [10], in test [11] and in test [12] was > 100 µM (inactive) in each case. Besides, the GI50 in test [13], in test [14], in test [15] and in [16] was > 100 µM (inactive) each time.

Turning to `Cc1ccc(NC(=O)CCC(=O)C(C#N)c2ccc(Cl)cc2)cc1C` (stereo unspecified), the GI50 in test [1], in [2], in [3], in test [4], in test [5] and in test [17] was > 100 µM (inactive) in each case. In addition, the GI50 in [6], in test [7], in test [8], in [9], in test [10] and in [11] was > 100 µM (inactive) each time. For the same compound, the GI50 in test [12], in test [13], in [14], in test [15] and in test [16] was > 100 µM (inactive) throughout.

In the case of `Cc1nnc(N/N=C(/C(=O)C(C#N)c2ccccc2)C(C#N)c2ccccc2)n1N` (stereo unspecified), the GI50 in test [1] was 11.8 µM (inactive); in test [2], 32.1 µM (inactive); in test [3], 17.7 µM (inactive); in test [4], 51.9 µM (inactive); in [5], 4.85 µM (inactive); in [17] it was 2.46 µM (inactive). Further, the GI50 in test [6] was 17.9 µM (inactive); in test [7], 3.71 µM (inactive); in test [8], 0.845 µM (active); in [9] it was 4.18 µM (inactive); in test [10], 1.01 µM (active); in [11], 17.9 µM (inactive). The GI50 in test [12] was 24.4 µM (inactive); in [13], 3.62 µM (inactive); in test [14], 3.13 µM (inactive); in test [15], 56 µM (inactive); in [16], 29.8 µM (inactive).

Consider `Cc1cc(=O)oc2cc(OCCCOc3ccc4c(C)cc(=O)oc4c3)ccc12`, for which the GI50 is 59.8 µM (inactive) in test [1]; 91.4 µM (inactive) in [3]; > 100 µM (inactive) in test [4]; > 100 µM (inactive) in [5]; > 100 µM (inactive) in test [17]; > 100 µM (inactive) in test [6]. The GI50 in [7], in test [8], in [9], in [10], in [12] and in [13] was > 100 µM (inactive) each time. The GI50 is > 100 µM (inactive) in test [14], 57.9 µM (inactive) in [15] and > 100 µM (inactive) in test [16].

In the case of `COc1ccc(Cc2nc3ccccc3s2)cc1OC`, the GI50 in test [1] is 17.9 µM (inactive); in test [2] it was 15.5 µM (inactive); in test [3] it was 15.6 µM (inactive); in test [4], 20.8 µM (inactive); in test [5] it was 21.1 µM (inactive); in test [17], 15.8 µM (inactive). Besides, the GI50 is 18.4 µM (inactive) in test [6]; 17.5 µM (inactive) in test [7]; 20.2 µM (inactive) in test [8]; 17.1 µM (inactive) in [9]; 19.7 µM (inactive) in test [10]; 17.8 µM (inactive) in [11]. Moreover, the GI50 in test [12] was 16.4 µM (inactive); in test [13] it was 16.9 µM (inactive); in test [14], 17.1 µM (inactive); in test [15], 32.5 µM (inactive); in test [16] it was 17.3 µM (inactive).

For the compound `CC1CC(C)C(C(O)CC2CC(=O)N(c3ccccc3)C(=O)C2)C(O)C1` (stereo unspecified), the GI50 in test [1], in test [2], in test [3], in test [4], in [5] and in test [17] was > 100 µM (inactive) in each case. Moreover, the GI50 in test [6], in test [7], in [8], in [9], in test [10] and in test [11] was > 100 µM (inactive) each time. Further, the GI50 in test [12], in test [13], in test [14], in [15] and in [16] was > 100 µM (inactive) in each case.

As to `O=C(CC1(O)C(=O)Nc2ccccc21)c1ccc(F)cc1` (stereo unspecified), the GI50 in [1], in test [2], in test [3], in test [4], in [17] and in test [6] was > 100 µM (inactive) throughout. The GI50 in test [7], in [8], in [9], in test [10], in test [11] and in test [12] was > 100 µM (inactive) in each case. The GI50 in test [13], in test [14], in test [15] and in test [16] was > 100 µM (inactive) in each case.

Take `O=c1[nH]c(-c2ccccc2)nc2cc(Cl)ccc12`: the GI50 in [1], in [2], in test [3], in test [4], in [5] and in test [17] was > 100 µM (inactive) each time. For the same compound, the GI50 in [6], in test [7], in test [8], in [9], in test [10] and in [12] was > 100 µM (inactive) throughout. Moreover, the GI50 in [13] and in test [16] was > 100 µM (inactive) throughout.

Consider `CC1=C(C(=O)Nc2ccc([N+](=O)[O-])cc2)C(c2ccc3c(c2)OCO3)C(C(=O)Nc2ccc([N+](=O)[O-])cc2)=C(C)N1`, for which the GI50 in test [1] was 14.1 µM (inactive); in [2], 23.7 µM (inactive); in test [3] it was 9.77 µM (inactive); in test [4] it was 8.2 µM (inactive); in test [5], 7.05 µM (inactive); in [17], 10.1 µM (inactive). Besides, the GI50 in test [7] was 7.96 µM (inactive); in test [8], 0.321 µM (active); in test [9], 23.9 µM (inactive); in test [10] it was 10 µM (inactive); in [11], 24.1 µM (inactive); in [12], 10.6 µM (inactive). The GI50 in test [13] is 3.16 µM (inactive); in test [14], 38.3 µM (inactive); in test [15], > 100 µM (inactive); in [16], 5.21 µM (inactive).

As for `O=c1[nH]cc(C(F)(C(F)(F)F)C(F)(F)F)c(=O)[nH]1`, the GI50 in test [1], in test [2], in [3], in test [4], in test [17] and in [6] was > 100 µM (inactive) in each case. The GI50 in test [7], in [8], in test [9], in test [10], in [11] and in test [12] was > 100 µM (inactive) throughout. The GI50 in test [13], in test [14], in test [15] and in test [16] was > 100 µM (inactive) throughout.
